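Step 1: Grow cells in 96-well plates. Step 2: Expose to compound for 48 hours at 5 concentrations. Step 3: Interpolate endpoints linearly; if unreached, use highest concentration. TGI: concentration producing complete growth inhibition.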
How the values were obtained:
Experiment in all cases: inhibition of tumour cell growth, NCI panel, 48 h
[1] = test system: 786-0 renal
[2] = test system: CCRF-CEM leukemia
[3] = test system: COLO 205 colon
[4] = test system: HCC-2998 colon
[5] = test system: HCT-15 colon
[6] = test system: HOP-62 NSCLC
[7] = test system: HS 578T breast
[8] = test system: MALME-3M melanoma
[9] = test system: MCF7 breast
[10] = test system: NCI-H226 lung
[11] = test system: NCI-H522 lung
[12] = test system: OVCAR-5 ovarian
[13] = test system: OVCAR-8 ovarian
[14] = test system: SF-295 CNS
[15] = test system: SF-539 CNS
[16] = test system: SNB-19 CNS
[17] = test system: SNB-75 CNS
[18] = test system: SR leukemia
[19] = test system: UACC-62 melanoma
[20] = test system: HL-60(TB) leukemia

SMILES	TGI [1] [µM]	TGI [2] [µM]	TGI [3] [µM]	TGI [4] [µM]	TGI [5] [µM]	TGI [6] [µM]	TGI [7] [µM]	TGI [8] [µM]	TGI [9] [µM]	TGI [10] [µM]	TGI [11] [µM]	TGI [12] [µM]	TGI [13] [µM]	TGI [14] [µM]	TGI [15] [µM]	TGI [16] [µM]	TGI [17] [µM]	TGI [18] [µM]	TGI [19] [µM]	TGI [20] [µM]
COc1ccc2c3c1OC1C34CCN(C)C(C2)C4=CC(I)C1(OC)OC (stereo not given)	14	5.87	28.7	21.9	27.8	20.8	79.7	21.9	19	59.3	15.3	38.4	16.1	> 100	40.6	30.5	34.5	10.2	28	
N#CCN(CC#N)C1CC=CCC1N(CC#N)CC#N (stereo not given)	> 100	> 100	> 100		> 100	> 100	> 100	> 100	> 100	> 100	> 100	> 100	> 100	> 100	> 100	> 100			> 100	> 100
O=C(Nc1nnc(-c2c(Cl)c(Cl)c(Cl)c(Cl)c2-c2nc3cc(C(=O)c4ccccc4)ccc3[nH]2)o1)c1ccc(Cl)cc1	> 100	> 100	35.1		> 100	67.5			> 100	> 100		> 100	> 100	42.4	> 100	> 100	> 100	> 100		> 100
c1ccc2c(c1)ccn1ccc3c4ccccc4nc-3c21	1.31	1.43	1.13	1.16		1.85	4.25	2.01	1.11	1.81	1.7	2.36	1.78	2.03	1.48	3.14	2.15		3.81	1.36
CC(CN(C)C)C(=O)c1ccccc1 (stereo not given)	> 52.3	27.2	> 67.5	63	33.4	> 100		> 61.1		> 100	4.32	96.1	> 91.2	> 100	> 100	> 100	> 100	60.2	> 57.4	> 57
S=C(N1CCN(c2cccc(Cl)c2)CC1)N1CCN(c2cccc(Cl)c2)CC1	> 100	27.8	68	36.1	> 100	> 100	66.6	71.4	> 100	88.4	> 100	> 100	> 100	> 100		> 100		32.4	> 100	
COc1ccc(C2C3CCCC(C3=O)C(c3ccc(OC)cc3)N2N=O)cc1 (stereo not given)		> 70.7	42.3	59.6	> 100	> 86.5		20	38.2	61.6	34.6	> 100	> 100	45.8		> 91.2	62.4		97.4	> 64

Source: PubChem BioAssay (NCI)
